According to PubChem BioAssay AID248 (DTP/NCI, 2004):
Inconclusive results and toxic doses are left out.

System: L1210 leukemia ip in BDF1 mice, survival T/C
Experiment: NCI In Vivo Anticancer Drug Screen. Data for tumor model L1210 Leukemia (intraperitoneal) in B6D2F1 (BDF1) mice
Details: endpoint: mean survival time, higher = longer survival
Method in brief: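 Transplantable tumor model; survival measured in treated vs vehicle control mice. Value = treated/control.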

[1] = dose: 100.0 mg/kg/injection, schedule: Q01DX001 (ip), vehicle: saline
[2] = dose: 200.0 mg/kg/injection, schedule: Q01DX001 (ip), vehicle: saline
[3] = dose: 400.0 mg/kg/injection, schedule: Q01DX001 (ip), vehicle: saline
[4] = dose: 100.0 mg/kg/injection, schedule: Q01DX009 (ip), vehicle: Klucel (hydroxypropylcellulose) (HPC)
[5] = dose: 200.0 mg/kg/injection, schedule: Q01DX009 (ip), vehicle: Klucel (hydroxypropylcellulose) (HPC)

COc1cc2c(c(OC)c1OC)-c1cc(I)c(O)cc1[C@@H](NC(C)=O)CC2
T/C (dose: 8.0 mg/kg/injection, schedule: Q01DX Z (ip), vehicle: carboxymethylcellulose (CMC)): 104 % of control
T/C (dose: 11.0 mg/kg/injection, schedule: Q01DX009 (ip), vehicle: saline with Tween-80): 114 % of control
T/C (dose: 12.0 mg/kg/injection, schedule: Q01DX Z (ip), vehicle: carboxymethylcellulose (CMC)): 109 % of control
T/C (dose: 16.5 mg/kg/injection, schedule: Q01DX009 (ip), vehicle: saline with Tween-80): 115 % of control
T/C (dose: 18.0 mg/kg/injection, schedule: Q01DX Z (ip), vehicle: carboxymethylcellulose (CMC)): 119 % of control
T/C (dose: 25.0 mg/kg/injection, schedule: Q01DX009 (ip), vehicle: saline with Tween-80): 110 % of control
T/C (dose: 28.0 mg/kg/injection, schedule: Q01DX Z (ip), vehicle: carboxymethylcellulose (CMC)): 118 % of control
T/C (dose: 28.0 mg/kg/injection, schedule: Q01DX Z (ip), vehicle: saline): 123 % of control
T/C (dose: 40.0 mg/kg/injection, schedule: Q01DX015 (ip), vehicle: carboxymethylcellulose (CMC)): 104 % of control
T/C (dose: 44.0 mg/kg/injection, schedule: Q04DX003 (ip), vehicle: saline sonified): 100 % of control
T/C (dose: 45.0 mg/kg/injection, schedule: Q01DX Z (ip), vehicle: saline): 122 % of control
T/C (dose: 50.0 mg/kg/injection, schedule: Q01DX001 (ip), vehicle: carboxymethylcellulose (CMC)): 124 % of control
T/C (dose: 65.0 mg/kg/injection, schedule: Q01DX Z (ip), vehicle: saline): 105 % of control
T/C (dose: 66.0 mg/kg/injection, schedule: Q04DX003 (ip), vehicle: saline sonified): 107 % of control
T/C (dose: 100.0 mg/kg/injection, schedule: Q01DX001 (ip), vehicle: carboxymethylcellulose (CMC)): 120 % of control
T/C (dose: 100.0 mg/kg/injection, schedule: Q01DX009 (ip), vehicle: saline sonified): 124 % of control
T/C (dose: 100.0 mg/kg/injection, schedule: Q01DX Z (ip), vehicle: carboxymethylcellulose (CMC)): 122 % of control
T/C (dose: 100.0 mg/kg/injection, schedule: Q04DX003 (ip), vehicle: saline sonified): 108 % of control
T/C (dose: 150.0 mg/kg/injection, schedule: Q04DX003 (ip), vehicle: saline sonified): 124 % of control
T/C (dose: 200.0 mg/kg/injection, schedule: Q04DX003 (ip), vehicle: Klucel (hydroxypropylcellulose) (HPC)): 111 % of control
T/C (dose: 400.0 mg/kg/injection, schedule: Q01DX009 (ip), vehicle: saline sonified): 165 % of control
T/C (dose: 400.0 mg/kg/injection, schedule: Q04DX003 (ip), vehicle: Klucel (hydroxypropylcellulose) (HPC)): 96 % of control

C(=C\c1ccccn1)/c1ccc2c(c1)OCO2
T/C (dose: 75.0 mg/kg/injection, schedule: Q01DX009 (ip), vehicle: saline): 93 % of control
T/C [1]: 101 % of control
T/C (dose: 150.0 mg/kg/injection, schedule: Q01DX009 (ip), vehicle: saline): 93 % of control
T/C [2]: 96 % of control
T/C (dose: 300.0 mg/kg/injection, schedule: Q01DX009 (ip), vehicle: saline): 88 % of control
T/C [3]: 95 % of control

Cc1noc(C)c1CC1(c2ccccc2)CCCCC1=O (stereo not given)
T/C [4]: 93 % of control
T/C [5]: 95 % of control
T/C (dose: 400.0 mg/kg/injection, schedule: Q01DX009 (ip), vehicle: Klucel (hydroxypropylcellulose) (HPC)): 93 % of control

CCCCOc1ccc(NC(=O)N(C)C)cn1
T/C (dose: 100.0 mg/kg/injection, schedule: Q04DX003 (ip), vehicle: saline with Tween-80): 94 % of control
T/C (dose: 200.0 mg/kg/injection, schedule: Q04DX003 (ip), vehicle: saline with Tween-80): 96 % of control
T/C (dose: 400.0 mg/kg/injection, schedule: Q04DX003 (ip), vehicle: saline with Tween-80): 87 % of control

C=CCC(CC)C(=O)NC(=O)N1CCCc2ccccc21 (stereo not given)
T/C (dose: 100.0 mg/kg/injection, schedule: Q01DX001 (ip), vehicle: saline with Tween-80): 91 % of control
T/C (dose: 200.0 mg/kg/injection, schedule: Q01DX001 (ip), vehicle: saline with Tween-80): 86 % of control

Nn1c(C(F)(F)F)n[nH]c1=S
T/C (dose: 100.0 mg/kg/injection, schedule: Q04DX003 (ip), vehicle: alcohol): 103 % of control
T/C (dose: 200.0 mg/kg/injection, schedule: Q04DX003 (ip), vehicle: alcohol): 101 % of control
T/C (dose: 400.0 mg/kg/injection, schedule: Q04DX003 (ip), vehicle: alcohol): 95 % of control

CC1CCCC(C)[N+]1=C(Nc1cccc(Cl)c1)c1ccccc1 (stereo not given)
T/C (dose: 100.0 mg/kg/injection, schedule: Q04DX002 (ip), vehicle: Klucel (hydroxypropylcellulose) (HPC)): 97 % of control
T/C (dose: 200.0 mg/kg/injection, schedule: Q04DX002 (ip), vehicle: Klucel (hydroxypropylcellulose) (HPC)): 106 % of control
T/C (dose: 400.0 mg/kg/injection, schedule: Q04DX002 (ip), vehicle: Klucel (hydroxypropylcellulose) (HPC)): 101 % of control

O=C(CC(=O)OCc1ccc([N+](=O)[O-])cc1)OCc1ccc([N+](=O)[O-])cc1
T/C (dose: 25.0 mg/kg/injection, schedule: Q01DX001 (ip), vehicle: Klucel (hydroxypropylcellulose) (HPC)): 104 % of control
T/C (dose: 50.0 mg/kg/injection, schedule: Q01DX001 (ip), vehicle: Klucel (hydroxypropylcellulose) (HPC)): 95 % of control
T/C (dose: 100.0 mg/kg/injection, schedule: Q01DX001 (ip), vehicle: Klucel (hydroxypropylcellulose) (HPC)): 92 % of control

OC1C=Cc2ccccc21 (stereo not given)
T/C (dose: 100.0 mg/kg/injection, schedule: Q04DX002 (ip), vehicle: other): 97 % of control
T/C (dose: 200.0 mg/kg/injection, schedule: Q04DX002 (ip), vehicle: other): 97 % of control

CSc1cc(C(=O)Nc2ccc(C3=NCCN3)cc2)cc(C(=O)Nc2ccc(C3=NCCN3)cc2)c1
T/C (dose: 2.75 mg/kg/injection, schedule: Q01DX Z (ip), vehicle: carboxymethylcellulose (CMC)): 110 % of control
T/C (dose: 5.5 mg/kg/injection, schedule: Q01DX Z (ip), vehicle: carboxymethylcellulose (CMC)): 102 % of control
T/C (dose: 11.0 mg/kg/injection, schedule: Q01DX Z (ip), vehicle: carboxymethylcellulose (CMC)): 96 % of control
T/C (dose: 22.0 mg/kg/injection, schedule: Q01DX Z (ip), vehicle: carboxymethylcellulose (CMC)): 119 % of control
T/C (dose: 31.0 mg/kg/injection, schedule: Q01DX Z (ip), vehicle: carboxymethylcellulose (CMC)): 225 % of control
T/C (dose: 45.0 mg/kg/injection, schedule: Q01DX Z (ip), vehicle: carboxymethylcellulose (CMC)): 174 % of control
T/C (dose: 62.0 mg/kg/injection, schedule: Q01DX Z (ip), vehicle: carboxymethylcellulose (CMC)): 242 % of control
T/C (dose: 90.0 mg/kg/injection, schedule: Q01DX Z (ip), vehicle: carboxymethylcellulose (CMC)): 168 % of control
T/C (dose: 125.0 mg/kg/injection, schedule: Q01DX Z (ip), vehicle: carboxymethylcellulose (CMC)): 165 % of control
T/C (dose: 180.0 mg/kg/injection, schedule: Q01DX Z (ip), vehicle: carboxymethylcellulose (CMC)): 256 % of control
T/C (dose: 250.0 mg/kg/injection, schedule: Q01DX Z (ip), vehicle: carboxymethylcellulose (CMC)): 157 % of control
T/C (dose: 360.0 mg/kg/injection, schedule: Q01DX Z (ip), vehicle: carboxymethylcellulose (CMC)): 100 % of control

O=C(O)c1nccc2c(O)cccc12
T/C (dose: 100.0 mg/kg/injection, schedule: Q04DX003 (ip), vehicle: saline): 93 % of control
T/C (dose: 200.0 mg/kg/injection, schedule: Q04DX003 (ip), vehicle: saline): 102 % of control
T/C (dose: 400.0 mg/kg/injection, schedule: Q04DX003 (ip), vehicle: saline): 101 % of control

O=C(Nc1cccc(O)c1)Nc1ccc(Cl)cc1[N+](=O)[O-]
T/C [4]: 102 % of control
T/C [5]: 101 % of control

COC(=O)[c-]1[c-][c-][c-][c-]1.COC(=O)[c-]1[c-][c-][c-][c-]1.[Fe]
T/C (dose: 12.5 mg/kg/injection, schedule: Q04DX003 (ip), vehicle: Klucel (hydroxypropylcellulose) (HPC)): 94 % of control
T/C (dose: 25.0 mg/kg/injection, schedule: Q04DX003 (ip), vehicle: Klucel (hydroxypropylcellulose) (HPC)): 90 % of control
T/C (dose: 50.0 mg/kg/injection, schedule: Q04DX003 (ip), vehicle: Klucel (hydroxypropylcellulose) (HPC)): 90 % of control
T/C (dose: 75.0 mg/kg/injection, schedule: Q01DX009 (ip), vehicle: Klucel (hydroxypropylcellulose) (HPC)): 103 % of control
T/C (dose: 115.0 mg/kg/injection, schedule: Q01DX009 (ip), vehicle: Klucel (hydroxypropylcellulose) (HPC)): 93 % of control

Cc1cc(CC(=O)c2ccccc2)[nH]c(=O)c1
T/C [1]: 103 % of control
T/C [2]: 101 % of control
T/C [3]: 101 % of control

FC(F)(F)C(F)(C1=NS1(F)C(F)(C(F)(F)F)C(F)(F)F)C(F)(F)F (stereo not given)
T/C (dose: 100.0 mg/kg/injection, schedule: Q01DX001 (ip), vehicle: acetone): 101 % of control
T/C (dose: 200.0 mg/kg/injection, schedule: Q01DX001 (ip), vehicle: acetone): 95 % of control
T/C (dose: 400.0 mg/kg/injection, schedule: Q01DX001 (ip), vehicle: acetone): 100 % of control
